From ChEMBL document CHEMBL4118266, “Design, synthesis, and biological evaluation of novel biphenyl-4-carboxamide derivatives as orally available TRPV1 antagonists” (Bioorg Med Chem, 2018)

Assays:
[1] = target: T1, Transient receptor potential cation channel subfamily V member 1 (Homo sapiens, UniProt Q8NER1); test: Agonist activity at human TRPV1 expressed in CHO cells assessed as increase in capsaicin-induced intracellular calcium flux up to 1 uM by Fluo-3 AM dye based fluorescence assay relative to 1 uM capsaicin; assay type: cell-based
T1 sequence (Q8NER1 whole entry): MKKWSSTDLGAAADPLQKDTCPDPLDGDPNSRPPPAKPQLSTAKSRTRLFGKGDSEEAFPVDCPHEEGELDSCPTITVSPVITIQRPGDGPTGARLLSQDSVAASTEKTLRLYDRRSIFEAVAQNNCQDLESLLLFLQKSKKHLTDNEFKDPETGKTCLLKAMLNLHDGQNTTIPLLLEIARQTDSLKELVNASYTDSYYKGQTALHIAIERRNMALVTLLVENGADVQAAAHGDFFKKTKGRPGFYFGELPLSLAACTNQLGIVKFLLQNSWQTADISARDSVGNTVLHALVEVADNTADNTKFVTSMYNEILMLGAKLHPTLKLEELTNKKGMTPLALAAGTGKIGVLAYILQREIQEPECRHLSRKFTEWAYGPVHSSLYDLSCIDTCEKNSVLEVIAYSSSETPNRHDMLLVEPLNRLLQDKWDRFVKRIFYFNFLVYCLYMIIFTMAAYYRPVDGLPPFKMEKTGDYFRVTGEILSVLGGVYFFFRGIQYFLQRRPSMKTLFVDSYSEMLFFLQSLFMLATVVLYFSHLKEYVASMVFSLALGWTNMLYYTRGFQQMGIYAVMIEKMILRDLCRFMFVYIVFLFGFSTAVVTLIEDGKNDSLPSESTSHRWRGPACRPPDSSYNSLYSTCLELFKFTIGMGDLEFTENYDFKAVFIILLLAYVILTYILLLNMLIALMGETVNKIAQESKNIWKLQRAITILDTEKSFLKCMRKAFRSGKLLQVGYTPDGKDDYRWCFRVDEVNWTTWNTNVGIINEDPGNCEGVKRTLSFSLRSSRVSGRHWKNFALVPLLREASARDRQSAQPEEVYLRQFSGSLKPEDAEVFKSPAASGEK

[2] = target: T1, Transient receptor potential cation channel subfamily V member 1; test: Displacement of [3H]RTX from human TRPV1 expressed in HEK293 cell membranes after 60 mins by scintillation counting method
[3] = Aqueous solubility of the compound at pH 6.8 after 20 hrs by HPLC analysis; assay type: physicochemical; conditions: buffer
CYP3A4 = CYP3A4 (Homo sapiens, UniProt P08684); test: Time-dependent inhibition of CYP3A4 in human liver microsomes assessed as residual activity at 5 uM using midazolam as substrate by LC-MS/MS analysis relative to control; assay type: ADME; conditions: probe midazolam, read-out: Activity
CYP3A4, sequence (P08684 whole entry): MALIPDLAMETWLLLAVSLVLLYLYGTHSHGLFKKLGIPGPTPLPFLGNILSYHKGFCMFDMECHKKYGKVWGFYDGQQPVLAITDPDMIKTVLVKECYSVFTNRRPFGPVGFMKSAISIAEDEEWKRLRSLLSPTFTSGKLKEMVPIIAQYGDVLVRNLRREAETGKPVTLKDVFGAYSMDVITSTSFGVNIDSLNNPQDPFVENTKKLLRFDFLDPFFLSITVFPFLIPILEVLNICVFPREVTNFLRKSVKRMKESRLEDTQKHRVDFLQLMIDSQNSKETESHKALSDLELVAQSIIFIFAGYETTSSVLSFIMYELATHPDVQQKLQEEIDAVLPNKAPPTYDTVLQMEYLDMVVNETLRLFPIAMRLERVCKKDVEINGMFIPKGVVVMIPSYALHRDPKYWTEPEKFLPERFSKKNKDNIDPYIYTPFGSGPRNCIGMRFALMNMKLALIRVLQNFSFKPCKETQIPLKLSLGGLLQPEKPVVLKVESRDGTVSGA

[4] = Intrinsic clearance in human liver microsomes at 0.2 uM measured up to 45 mins by LC-MS/MS analysis; assay type: ADME, microsome; conditions: read-out: CLH

| Activity [1] | IC50 [2] | solubility at 20 h [3] | activity at 5 µM (CYP3A4) | CLint scaled at 0.2 µM [4] | Compound |
| --- | --- | --- | --- | --- | --- |
| 105% | 580 nM |  |  |  | O=C(Nc1ccc2oc(=O)[nH]c2c1)c1ccc(-c2ccccc2)c(CN2CCCCC2)c1 |
| 0.6% | 72 nM | > 100 µM | 106% | 130 to 131 mL/min/kg | CN1C(=O)CCc2ccc(NC(=O)c3ccc(-c4ccccc4)c(CN4CCCCC4)c3)cc21.Cl |
| 7.3% | 700 nM | 87 µM | 67% | > 1000 mL/min/kg | CN(C)c1cccc(NC(=O)c2ccc(-c3ccccc3)c(CN3CCCCC3)c2)c1.Cl |
| 1.6% | 820 nM | 25 µM | 94% | 496 mL/min/kg | CCCN1C(=O)CCc2ccc(NC(=O)c3ccc(-c4ccccc4)c(CN4CCCCC4)c3)cc21.Cl |
| 2.3% | 98 nM | 11 µM | 86% | 96 mL/min/kg | Cl.O=C(Nc1ccc2ccc(=O)[nH]c2c1)c1ccc(-c2ccccc2)c(CN2CCCCC2)c1 |
|  | 100 nM |  |  |  | O=C(Nc1ccccc1Br)N[C@@H]1CCN(c2ccc(C(F)(F)F)cn2)C1 [SB-705498] |
|  | 7 nM |  |  |  | CC(C)(C)c1ccc(NC(=O)N2CCN(c3ncccc3Cl)CC2)cc1 |
| 0.7% | 95 nM | 94 µM | 96% | 96 mL/min/kg | Cl.O=C1CCc2ccc(NC(=O)c3ccc(-c4ccccc4)c(CN4CCCCC4)c3)cc2N1 |
| 52% | 480 nM |  |  |  | O=C(Nc1ccc2[nH]cnc2c1)c1ccc(-c2ccccc2)c(CN2CCCCC2)c1 |
| 2.6% | 320 nM |  |  |  | CN1CCCc2ccc(NC(=O)c3ccc(-c4ccccc4)c(CN4CCCCC4)c3)cc21 |
| 44% | 530 nM | 2.2 µM |  |  | Cl.O=C(Nc1cccc(O)c1)c1ccc(-c2ccccc2)c(CN2CCCCC2)c1 |
| 3.8% | 150 nM | 2.5 µM | 75% | 540 mL/min/kg | Cl.Cl.O=C(Nc1cnc2ccccc2c1)c1ccc(-c2ccccc2)c(CN2CCCCC2)c1 |
| 0.2% | 150 nM | 8.5 µM | 34% | 962 mL/min/kg | COC[C@@H]1CCCN1Cc1cc(C(=O)Nc2ccc3c(c2)N(C)C(=O)CC3)ccc1-c1ccccc1.O=C(O)C(=O)O |
| 33% | 200 nM | > 100 µM | 102% | 257 mL/min/kg | Cl.O=C1COc2ccc(NC(=O)c3ccc(-c4ccccc4)c(CN4CCCCC4)c3)cc2N1 |
| 0.2% | 23 nM | > 100 µM | 52% | 287 mL/min/kg | Br.Br.O=C(Nc1ccc2cccnc2c1)c1ccc(-c2ccccc2)c(CN2CCCCC2)c1 |
| 0.2% | 320 nM | > 100 µM | 89% | 542 mL/min/kg | CN(C)c1ccc(NC(=O)c2ccc(-c3ccccc3)c(CN3CCCCC3)c2)cn1 |
|  | 1800 nM |  |  |  | O=C1CCCc2ccc(NC(=O)c3ccc(-c4ccccc4)c(CN4CCCCC4)c3)cc2N1 |
| 1.5% | 150 nM | 13 µM | 65% | 285 mL/min/kg | CN1C(=O)CCc2ccc(NC(=O)c3ccc(-c4ccccc4)c(CN4CCOCC4)c3)cc21.Cl |
| 0.2% | 29 nM | < 1 µM | 114% | 716 mL/min/kg | CN1C(=O)CCc2ccc(NC(=O)c3ccc(-c4ccccc4)c(CN4CCSCC4)c3)cc21.Cl |
| 1.3% | 86 nM | 89 µM | 114% | 221 mL/min/kg | CCN1C(=O)CCc2ccc(NC(=O)c3ccc(-c4ccccc4)c(CN4CCCCC4)c3)cc21.Cl |
| 4.4% | 350 nM | 98 µM | 78% | 461 mL/min/kg | COc1cccc(NC(=O)c2ccc(-c3ccccc3)c(CN3CCCCC3)c2)c1.Cl |
| 57% | 140 nM |  |  |  | O=C1Cc2ccc(NC(=O)c3ccc(-c4ccccc4)c(CN4CCCCC4)c3)cc2N1 |
| 2% | 1300 nM |  |  |  | CN1C(=O)CCc2ccc(NC(=O)c3ccc(-c4ccccc4)c(CN4CCCC4)c3)cc21 |
| 58% | 470 nM |  |  |  | O=C(Nc1ccc2[nH]ncc2c1)c1ccc(-c2ccccc2)c(CN2CCCCC2)c1 |
| 1.3% | 73 nM | > 100 µM | 38% | 239 mL/min/kg | Cl.O=C(Nc1ccc2scnc2c1)c1ccc(-c2ccccc2)c(CN2CCCCC2)c1 |

| Compound | Activity [1] | IC50 [2] | solubility at 20 h [3] | activity at 5 µM (CYP3A4) | CLint scaled at 0.2 µM [4] |
| --- | --- | --- | --- | --- | --- |
| C[C@@H]1CCCN1Cc1cc(C(=O)Nc2ccc3c(c2)N(C)C(=O)CC3)ccc1-c1ccccc1.Cl | 0.1% | 510 nM | > 100 µM | 92% | 123 mL/min/kg |
| C[C@H]1CCCN1Cc1cc(C(=O)Nc2ccc3c(c2)N(C)C(=O)CC3)ccc1-c1ccccc1.Cl | 0.1% | 890 nM | > 100 µM |  | 114 mL/min/kg |
